Consider ten compounds from PubChem BioAssay (NCI).

Among the test systems are TK-10 renal; LOX IMVI melanoma; HL-60(TB) leukemia; SK-MEL-28 melanoma; UACC-62 melanoma; DU-145 prostate; SW-620 colon; SNB-19 CNS; RPMI-8226 leukemia; NCI-H522 lung.
Experiment in all cases: NCI tumour cell line growth inhibition, 48 h

The structures appear in SMILES notation.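 Each compound was tested at five concentrations against cells in 96-well plates for 48 hours. Abbreviation: GI50, concentration required for 50% inhibition of growth. TGI is the concentration that stops growth completely.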

As to `CC1(C)N=C(N)N=C(N)N1c1cccc(OCCOc2cccc([N+](=O)[O-])c2)c1`, the GI50 with TK-10 renal was 66 µM; in the assay on LOX IMVI melanoma it was 2.15 µM; in the assay with HL-60(TB) leukemia it was 1.18 µM; with SK-MEL-28 melanoma, 7.86 µM; in the assay with UACC-62 melanoma, 2.28 µM; in the assay on DU-145 prostate, 4.38 µM. In addition, the GI50 was 1.93 µM in the assay with SW-620 colon, 4.88 µM in the assay with SNB-19 CNS, 4.01 µM in the assay with RPMI-8226 leukemia and 1.19 µM in the assay with NCI-H522 lung. Further, the TGI in the assay with TK-10 renal was more than 100 µM; in the assay with LOX IMVI melanoma, more than 100 µM; with HL-60(TB) leukemia it was more than 77.8 µM; in the assay on SK-MEL-28 melanoma, more than 100 µM; in the assay on UACC-62 melanoma it was more than 100 µM; with DU-145 prostate it was more than 100 µM. For the same compound, the TGI in the assay with SW-620 colon was more than 100 µM; in the assay on SNB-19 CNS, more than 100 µM; with RPMI-8226 leukemia, more than 100 µM; in the assay on NCI-H522 lung it was 62.5 µM.

With `Cc1c2c(C(N)=O)nccc2c(C)c2c1c1ccccc1n2Cc1ccccc1`, the TGI is 35.5 µM in the assay with TK-10 renal; 19.7 µM with LOX IMVI melanoma; 47 µM with HL-60(TB) leukemia; more than 100 µM in the assay on SK-MEL-28 melanoma; more than 100 µM with UACC-62 melanoma; more than 100 µM with DU-145 prostate. The TGI in the assay with SW-620 colon came out at 50 µM; with SNB-19 CNS, 51.2 µM; in the assay on RPMI-8226 leukemia, 61.2 µM; in the assay on NCI-H522 lung it was 54.6 µM.

For `COc1ccc(-c2nn(-c3cccc(Cl)c3)cc2-c2nc(N)[nH]c(=O)c2C#N)cc1`, the GI50 is 13.5 µM with TK-10 renal; 4.02 µM in the assay with LOX IMVI melanoma; 3.96 µM in the assay with HL-60(TB) leukemia; 4.98 µM in the assay on SK-MEL-28 melanoma; 3.33 µM in the assay on UACC-62 melanoma; 17.9 µM in the assay with DU-145 prostate. Further, the GI50 with SW-620 colon was 4.38 µM; in the assay on SNB-19 CNS, 4.58 µM; with RPMI-8226 leukemia, 5.63 µM; with NCI-H522 lung, 3.11 µM. Besides, the TGI amounted to 53.9 µM with TK-10 renal; 20.1 µM with LOX IMVI melanoma; 14.2 µM with HL-60(TB) leukemia; 27.9 µM in the assay on SK-MEL-28 melanoma; 15.4 µM in the assay on UACC-62 melanoma; 70.1 µM in the assay on DU-145 prostate. Further, the TGI in the assay on SW-620 colon was 34.2 µM; in the assay on SNB-19 CNS, more than 100 µM; in the assay on RPMI-8226 leukemia, 55.5 µM; in the assay on NCI-H522 lung, 9.8 µM.

Regarding `C=CCn1c(SCC(=O)Nc2ccc(C(=O)/C=C/c3cc(OC)c(OC)c(OC)c3)cc2)nnc1-c1ccc(OC)cc1`, the GI50 in the assay with TK-10 renal is 1.6 µM; in the assay with LOX IMVI melanoma it was 0.28 µM; with HL-60(TB) leukemia it was 0.473 µM; in the assay on SK-MEL-28 melanoma, 0.709 µM; in the assay with UACC-62 melanoma it was 0.865 µM; in the assay on DU-145 prostate, 0.453 µM. Besides, the GI50 with SW-620 colon is 0.397 µM; in the assay with SNB-19 CNS it was 0.59 µM; in the assay with RPMI-8226 leukemia, 0.202 µM; in the assay on NCI-H522 lung it was 0.689 µM. Further, the TGI in the assay on TK-10 renal was 6.18 µM; in the assay with LOX IMVI melanoma it was 1.03 µM; in the assay on SK-MEL-28 melanoma, 73.8 µM; in the assay with UACC-62 melanoma, 3.78 µM; with DU-145 prostate it was 16 µM; in the assay with SW-620 colon, more than 47.4 µM. Moreover, the TGI in the assay on SNB-19 CNS stood at 11.8 µM; in the assay on RPMI-8226 leukemia, 0.68 µM; with NCI-H522 lung it was 3.37 µM.

Turning to `COc1ccc(-c2noc(N)c2-c2cc(OC)c3c(c2)OCO3)cc1`, the GI50 in the assay with TK-10 renal is 7.8 µM; in the assay with LOX IMVI melanoma, 4.02 µM; in the assay on HL-60(TB) leukemia, 1.64 µM; in the assay on SK-MEL-28 melanoma it was 6.31 µM; in the assay with UACC-62 melanoma, 4.22 µM; in the assay with DU-145 prostate, 3.42 µM. Also, the GI50 in the assay with SW-620 colon is 0.677 µM; in the assay with SNB-19 CNS, 10.6 µM; in the assay with RPMI-8226 leukemia, 3.25 µM; in the assay on NCI-H522 lung, 1.24 µM. The TGI in the assay with TK-10 renal was more than 100 µM; with LOX IMVI melanoma, more than 100 µM; in the assay with HL-60(TB) leukemia it was 7.6 µM; with SK-MEL-28 melanoma, more than 100 µM; in the assay on UACC-62 melanoma it was more than 100 µM; in the assay with DU-145 prostate, more than 90.9 µM. Further, the values for the TGI in the assay on SW-620 colon, in the assay with SNB-19 CNS and in the assay on RPMI-8226 leukemia were more than 100 µM, more than 100 µM and more than 49.9 µM, respectively.

As for `c1ccc2c(c1)c1ccccc1c1ccccc21`, the GI50 in the assay with TK-10 renal, in the assay with LOX IMVI melanoma, with HL-60(TB) leukemia, in the assay on SK-MEL-28 melanoma, in the assay with UACC-62 melanoma and with DU-145 prostate was more than 100 µM throughout. Besides, the GI50 in the assay with SW-620 colon, with SNB-19 CNS, in the assay with RPMI-8226 leukemia and with NCI-H522 lung was more than 100 µM each time. The TGI in the assay with TK-10 renal, in the assay on LOX IMVI melanoma, with HL-60(TB) leukemia, in the assay with SK-MEL-28 melanoma, in the assay on UACC-62 melanoma and with DU-145 prostate was more than 100 µM throughout. For the same compound, the TGI with SW-620 colon, in the assay with SNB-19 CNS, in the assay with RPMI-8226 leukemia and in the assay with NCI-H522 lung was more than 100 µM in each case.

On to `COc1ccc(-c2ccc(NNC(=O)c3ccc(F)cc3)nn2)cc1OC`, for which the GI50 with TK-10 renal was more than 100 µM; in the assay on LOX IMVI melanoma, 67.6 µM; with HL-60(TB) leukemia it was 33.5 µM; with SK-MEL-28 melanoma, more than 100 µM; in the assay on UACC-62 melanoma it was more than 100 µM; with DU-145 prostate, more than 100 µM. The GI50 is more than 100 µM in the assay with SW-620 colon, more than 100 µM in the assay with SNB-19 CNS, 35.3 µM with RPMI-8226 leukemia and 54.3 µM in the assay with NCI-H522 lung. The TGI in the assay with TK-10 renal, in the assay with LOX IMVI melanoma, with HL-60(TB) leukemia, with SK-MEL-28 melanoma, in the assay on UACC-62 melanoma and in the assay with DU-145 prostate was more than 100 µM in each case. Besides, the TGI in the assay on SW-620 colon, with SNB-19 CNS, in the assay on RPMI-8226 leukemia and with NCI-H522 lung was more than 100 µM in each case.

Turning to `Oc1ccc(/C=C/c2cc(O)cc3c2C(c2cc(O)cc(O)c2)C(c2ccc(O)c(O)c2)O3)cc1` (stereo not drawn), the TGI in the assay with TK-10 renal is more than 100 µM; in the assay with LOX IMVI melanoma, more than 100 µM; in the assay with HL-60(TB) leukemia, 54.5 µM; in the assay on SK-MEL-28 melanoma, more than 100 µM; in the assay on UACC-62 melanoma it was 42.4 µM; in the assay on DU-145 prostate it was more than 100 µM. Also, the TGI is more than 100 µM in the assay with SW-620 colon, 54.3 µM in the assay on SNB-19 CNS, 40.6 µM in the assay with RPMI-8226 leukemia and 83 µM in the assay with NCI-H522 lung.

With `COc1ccc(-c2cc(Nc3ccnc(N4CCOCC4)n3)on2)cc1`, the GI50 was 10.9 µM in the assay with TK-10 renal; 0.353 µM with LOX IMVI melanoma; 0.2 µM in the assay on HL-60(TB) leukemia; 4.1 µM with SK-MEL-28 melanoma; 0.115 µM with UACC-62 melanoma; 0.302 µM in the assay on DU-145 prostate. Also, the GI50 is 0.0914 µM with SW-620 colon, 0.428 µM in the assay on SNB-19 CNS, 0.416 µM in the assay with RPMI-8226 leukemia and 0.0815 µM in the assay on NCI-H522 lung. The TGI in the assay with TK-10 renal turned out to be 24.9 µM; with LOX IMVI melanoma, 15.3 µM; with HL-60(TB) leukemia, 1.88 µM; in the assay with SK-MEL-28 melanoma, 19.9 µM; in the assay with UACC-62 melanoma, 15.9 µM; with DU-145 prostate, 13.4 µM. For the same compound, the TGI came out at 18.5 µM in the assay with SW-620 colon, 17.6 µM in the assay on SNB-19 CNS, 18.6 µM with RPMI-8226 leukemia and 3.12 µM in the assay with NCI-H522 lung.

`c1ccc(NCCSc2nc3ccccc3s2)cc1`: the TGI is 77.4 µM in the assay on TK-10 renal; more than 100 µM with LOX IMVI melanoma; more than 100 µM in the assay with HL-60(TB) leukemia; more than 100 µM in the assay with SK-MEL-28 melanoma; more than 100 µM with UACC-62 melanoma; more than 100 µM in the assay on DU-145 prostate. Further, the TGI with SW-620 colon, in the assay with SNB-19 CNS, in the assay with RPMI-8226 leukemia and with NCI-H522 lung was more than 100 µM in each case.
